Values after ≈ are worked out from the molar mass of the structure shown. Read-outs that look alike come from different tables or passages of the source.
Legend:
VE 150 (VanB) = test: MIC, VanB-type VRE strain VE 150; format: cell-based, Enterococcus; conditions: Enterococcus; VE 150, VanB; read-out: MIC
Description: (§1) The minimum inhibitory concentration (MIC) was determined using the broth microdilution method according to the antimicrobial susceptibility testing standards of the clinical and laboratory standards institute ([Clinical and Laboratory Standards Institute [CLSI], 2012]). Ultrapure water and non-inoculated broth were used as controls. In one case, a final concentration of 10 μM vancomycin was included with the vancomycin analog or control antibiotic.

E. faecalis VRE 29 = test: MIC, broth microdilution, vancomycin-resistant E. faecalis VRE 29 (VanA); format: cell-based, Enterococcus faecalis
How it was run: (§2)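 Inhibitory concentrations were read by the CLSI broth microdilution procedure, with water and sterile broth as controls. One experiment added vancomycin (10 μM final) together with each analogue or reference antibiotic.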

[1] = test system: L1210, CEM and HeLa cell lines; test: Cytostatic activity, average or summary over L1210, CEM and HeLa; format: cell-based
How it was run: (§3)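 Test compounds, serially diluted, received an equal volume of cell suspension at 300,000–500,000 cells/mL. After 37°C incubation (2 days for L1210, 3 for CEM, 4 for HeLa), cells were enumerated by Coulter counting and 50%-inhibitory concentrations calculated per cell type.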

VE 152 (VanB) = test: MIC, VanB-type VRE strain VE 152; format: cell-based, Enterococcus; conditions: Enterococcus; VE 152, VanB; read-out: MIC
Description: as §1

VE 82 (VanC1) = test: MIC, VanC1-type VRE strain VE 82; format: cell-based, Enterococcus gallinarum; conditions: Enterococcus gallinarum; VE 82, VanC1; read-out: MIC
Description: as §1

E. faecalis VRE 6 = test: MIC, broth microdilution, vancomycin-resistant E. faecalis VRE 6 (VanA); format: cell-based, Enterococcus faecalis
How it was run: as §2

[2] = test system: 24 clinical MRSA isolates; test: MIC against a set of 24 clinical MRSA isolates (range, MIC50, TI); format: cell-based, Staphylococcus aureus
Description: as §1

[3] = test system: human cervix carcinoma (HeLa) cells; test: Cytostatic activity, HeLa cell proliferation; format: cell-based; conditions: Homo sapiens, HeLa, 96 h; mean ± SD of three experiments; highest concentration tested 250 µM; 4 days; read-out: Toxicity (IC50) HeLa
How it was run: as §3

S. aureus VRSA = test: MIC, broth microdilution, vancomycin-resistant S. aureus (VRSA); format: cell-based, Staphylococcus aureus
How it was run: as §2

E. faecalis VSE 1 = test: MIC, broth microdilution, vancomycin-sensitive E. faecalis (VSE 1); format: cell-based, Enterococcus faecalis
How it was run: as §2

VE 157 (VanB) = test: MIC, VanB-type VRE strain VE 157; format: cell-based, Enterococcus; conditions: Enterococcus; VE 157, VanB; read-out: MIC
Description: as §1

MRSA KS6 = test: MIC, broth microdilution, MRSA KS6; format: cell-based, Staphylococcus aureus
How it was run: as §2

[4] = test system: S. aureus VSSA (ATCC 6538); test: MIC, broth microdilution, vancomycin-sensitive S. aureus (VSSA/MSSA, ATCC 6538); format: cell-based, Staphylococcus aureus
How it was run: as §2

E. faecalis VRE 53 = test: MIC, broth microdilution, vancomycin-resistant E. faecalis VRE 53 (VanA); format: cell-based, Enterococcus faecalis
How it was run: as §2

E. faecalis VRE 37 = test: MIC, broth microdilution, vancomycin-resistant E. faecalis VRE 37 (VanA); format: cell-based, Enterococcus faecalis
How it was run: as §2

[5] = test system: Murine leukemia (L1210) cells; test: Cytostatic activity, L1210 cell proliferation; format: cell-based; conditions: Mus musculus, L1210, 48 h; mean ± SD of three experiments; highest concentration tested 250 µM; 2 days; read-out: Toxicity (IC50) L1210
How it was run: as §3

VE 149 (VanB) = test: MIC, VanB-type VRE strain VE 149; format: cell-based, Enterococcus; conditions: Enterococcus; VE 149, VanB; read-out: MIC
Description: as §1

MRSA KS1 = test: MIC, broth microdilution, MRSA KS1; format: cell-based, Staphylococcus aureus
How it was run: as §2

MRSA KS89 = test: MIC, broth microdilution, MRSA KS89; format: cell-based, Staphylococcus aureus
How it was run: as §2

33 clinical VRE isolates = test: MIC against a set of 33 clinical VRE isolates (range, MIC50, TI); format: cell-based, Enterococcus faecalis
Description: as §1

MRSA KS2 = test: MIC, broth microdilution, MRSA KS2; format: cell-based, Staphylococcus aureus
How it was run: as §2

VE 148 (VanB) = test: MIC, VanB-type VRE strain VE 148; format: cell-based, Enterococcus; conditions: Enterococcus; VE 148, VanB; read-out: MIC
Description: as §1

[6] = test system: human T-lymphocyte (CEM) cells; test: Cytostatic activity, CEM cell proliferation; format: cell-based; conditions: Homo sapiens, CCRF-CEM, 72 h; mean ± SD of three experiments; highest concentration tested 250 µM; 3 days; read-out: Toxicity (IC50) CEM
How it was run: as §3

S. aureus VISA/HIP5827 = test: MIC, broth microdilution, vancomycin-intermediate S. aureus VISA HIP5827; format: cell-based, Staphylococcus aureus
How it was run: as §2

MRSA = test: Minimum bactericidal concentration against MRSA; format: cell-based, Staphylococcus aureus
Description: Plates were incubated overnight at 37°C and colony growth was inspected.

## CN(C)c1cc(NC(=O)CNC(C)(C)C)c(O)c2c1C[C@H]1C[C@H]3[C@H](N(C)C)C(O)=C(C(N)=O)C(=O)[C@@]3(O)C(O)=C1C2=O [Tigecycline, reference compound]
VE 150 (VanB)
  MIC: 1.56 µM (≈ 0.914 µg/mL)
E. faecalis VRE 29; Enterococcus faecalis VRE 29 (vancomycin-resistant), read-out: MIC
  MIC: 3.13 µM (≈ 1.83 µg/mL)
E. faecalis VRE 29; VRE 29, ratio of MIC of vancomycin and MIC of analogue
  MIC-fold improvement vs. vancomycin: 128
[1]; average IC50 used for TI in Table S5, >250 entered as 250, read-out: IC50
  IC50: 14 µM
[1]; average of L1210, CEM and HeLa, read-out: Toxicity (IC50) Average
  IC50: 14 µM
VE 152 (VanB)
  MIC: 1.56 µM (≈ 0.914 µg/mL)
VE 82 (VanC1)
  MIC: 0.78 µM (≈ 0.457 µg/mL)
E. faecalis VRE 6; Enterococcus faecalis VRE 6 (vancomycin-resistant), read-out: MIC
  MIC: 3.13 µM (≈ 1.83 µg/mL)
E. faecalis VRE 6; VRE 6, ratio of MIC of vancomycin and MIC of analogue
  MIC-fold improvement vs. vancomycin: 64
[2]; 24 clinical MRSA isolates
  MIC Range: 0.78 to 6.25 µM
[2]; Staphylococcus aureus, median MIC, 24 clinical MRSA isolates, read-out: MIC50
  MIC50: 1.56 µM (≈ 0.914 µg/mL)
[2]; in vitro therapeutic index, MRSA
  TI (IC50/MIC50): 9
[3]
  IC50: 24 ± 17 µM
S. aureus VRSA; Staphylococcus aureus VRSA, read-out: MIC
  MIC: 3.13 µM (≈ 1.83 µg/mL)
S. aureus VRSA; VRSA, ratio of MIC of vancomycin and MIC of analogue
  MIC-fold improvement vs. vancomycin: 32
E. faecalis VSE 1; VSE1, Enterococcus faecalis VSE 1 (vancomycin-sensitive), read-out: MIC
  MIC: 3.13 µM (≈ 1.83 µg/mL)
E. faecalis VSE 1; VSE 1, ratio of MIC of vancomycin and MIC of analogue
  MIC-fold improvement vs. vancomycin: 0.5
VE 157 (VanB)
  MIC: 1.56 µM (≈ 0.914 µg/mL)
MRSA KS6; MRSA KS6, ratio of MIC of vancomycin and MIC of analogue
  MIC-fold improvement vs. vancomycin: 0.5
MRSA KS6; Staphylococcus aureus MRSA KS6, read-out: MIC
  MIC: 1.56 µM (≈ 0.914 µg/mL)
[4]; ATCC6538, Staphylococcus aureus VSSA, read-out: MIC
  MIC: 3.13 µM (≈ 1.83 µg/mL)
[4]; VSSA, ratio of MIC of vancomycin and MIC of analogue
  MIC-fold improvement vs. vancomycin: 0.3
E. faecalis VRE 53; Enterococcus faecalis VRE 53 (vancomycin-resistant), read-out: MIC
  MIC: 3.13 µM (≈ 1.83 µg/mL)
E. faecalis VRE 53; VRE 53, ratio of MIC of vancomycin and MIC of analogue
  MIC-fold improvement vs. vancomycin: 128
E. faecalis VRE 37; Enterococcus faecalis VRE 37 (vancomycin-resistant), read-out: MIC
  MIC: 3.13 µM (≈ 1.83 µg/mL)
E. faecalis VRE 37; VRE 37, ratio of MIC of vancomycin and MIC of analogue
  MIC-fold improvement vs. vancomycin: 128
[5]
  IC50: 9.4 ± 3.2 µM
VE 149 (VanB)
  MIC: 1.56 µM (≈ 0.914 µg/mL)
MRSA KS1; MRSA KS1, ratio of MIC of vancomycin and MIC of analogue
  MIC-fold improvement vs. vancomycin: 0.5
MRSA KS1; Staphylococcus aureus MRSA KS1, read-out: MIC
  MIC: 1.56 µM (≈ 0.914 µg/mL)
MRSA KS89; MRSA KS8 (head; KS89 in title), ratio of MIC of vancomycin and MIC of analogue
  MIC-fold improvement vs. vancomycin: 0.5
MRSA KS89; Staphylococcus aureus MRSA KS8 (head; KS89 in title), read-out: MIC
  MIC: 1.56 µM (≈ 0.914 µg/mL)
33 clinical VRE isolates; 33 clinical VRE isolates
  MIC Range: ≤0.02 to 0.78 µM
33 clinical VRE isolates; Enterococcus, median MIC, 33 clinical VRE isolates, read-out: MIC50
  MIC50: 0.2 µM (≈ 0.117 µg/mL)
33 clinical VRE isolates; in vitro therapeutic index, VRE
  TI (IC50/MIC50): 70
MRSA KS2; MRSA KS2, ratio of MIC of vancomycin and MIC of analogue
  MIC-fold improvement vs. vancomycin: 0.5
MRSA KS2; Staphylococcus aureus MRSA KS2, read-out: MIC
  MIC: 1.56 µM (≈ 0.914 µg/mL)
VE 148 (VanB)
  MIC: 3.13 µM (≈ 1.83 µg/mL)
[6]
  IC50: 7.1 ± 2.1 µM
S. aureus VISA/HIP5827; Staphylococcus aureus VISA/HIP5827, read-out: MIC
  MIC: 3.13 µM (≈ 1.83 µg/mL)
S. aureus VISA/HIP5827; VISA/HIP5827, ratio of MIC of vancomycin and MIC of analogue
  MIC-fold improvement vs. vancomycin: 2
MRSA
  MBC relative to MIC: more than four times higher than the corresponding MIC

— publication PMC6001238, “Iterative Chemical Engineering of Vancomycin Leads to Novel Vancomycin Analogs With a High in Vitro Therapeutic Index” (Frontiers in Microbiology, 2018)
